Laboratory results from patent US11952349B2, “Anti-cancer nuclear hormone receptor-targeting compounds” (Nuvation Bio Inc., priority 2019, dated 2024).

Target: T1, ligand binding domain of the glucocorticoid receptor (Homo sapiens, UniProt P04150)
T1 construct: expressed in transfected cells
T1 sequence (P04150 524-758 limits assumed): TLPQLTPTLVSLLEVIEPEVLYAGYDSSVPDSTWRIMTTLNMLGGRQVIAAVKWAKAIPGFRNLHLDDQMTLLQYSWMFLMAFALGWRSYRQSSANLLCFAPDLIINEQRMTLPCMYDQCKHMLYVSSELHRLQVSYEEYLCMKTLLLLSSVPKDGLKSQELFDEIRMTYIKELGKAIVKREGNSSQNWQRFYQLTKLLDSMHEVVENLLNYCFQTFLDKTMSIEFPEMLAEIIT
Test: GR antagonism assay (HEK293, dexamethasone 1.5 nM, Dual-glo)
Assay type: cell-based
Settings: Table 8
Description: GR antagonism assay: To evaluate GR antagonist activity, test compound was added to the assay plate (top dose 5 μM, 4 fold serial dilution, 8 point dose response). HEK293 cells stably expressing the ligand binding domain of the glucocorticoid receptor were seeded at a density of 40000 cells/well in the assay plate. The assay plate was then incubated at 37° C., 5% CO2 for 30 minutes. Dexamethasone was added to the assay plate at 1.5 nM final concentration and the assay plate was incubated at 37° C., 5% CO2 for 20 h. After the incubation period, Dual-glo luciferase reagent was added to the assay plate and mixed at room temperature for 20 minutes on an orbital shaker, before reading out on the EnVision plate reader.

CC#C[C@]1(O)CC[C@H]2[C@@H]3CCC4=CC(=O)CCC4=C3[C@@H](c3ccc(N(C)CCCCCC(=O)N4CCN(C(=O)c5cc(Cc6n[nH]c(=O)c7ccccc67)ccc5F)CC4)cc3)C[C@@]21C [Compound 135, 4-(4-fluoro-3-(4-(6-((4-((8S,11R,13S,14S,17S)-17-hydroxy-13-methyl-3-oxo-17-(prop-1-ynyl)-2,3,6,7,8,11,12,13,14,15,16,17-dodecahydro-1H-cyclopenta[a]phenanthren-11-yl)phenyl)(methyl)amino)hexanoyl)piperazine-1-carbonyl)benzyl)phthalazin-1(2H)-one] showed an IC50 of under 10 nM.
CC(=O)O[C@]1(C(C)=O)CC[C@H]2[C@@H]3CCC4=CC(=O)CCC4=C3[C@@H](c3ccc(N(C)CCCCCC(=O)NCCOCCOCC(=O)N4CCN(C(=O)c5cc(Cc6n[nH]c(=O)c7ccccc67)ccc5F)CC4)cc3)C[C@@]21C [Compound 1384, (8S,11R,13S,14S,17R)-17-acetyl-11-(4-((6-(2-(2-(2-(4-(2-fluoro-5-((4-oxo-3,4-dihydrophthalazin-1-yl)methyl)benzoyl)piperazin-1-yl)-2-oxoethoxy)ethoxy)ethylamino)-6-oxohexyl)(methyl)amino)phenyl)-13-methyl-3-oxo-2,3,6,7,8,11,12,13,14,15,16,17-dodecahydro-1H-cyclopenta[a]phenanthren-17-yl acetate] gave an IC50 of 10 to 100 nM.
Work on C[C@]12CC[C@H]3[C@@H](CCC4=CC(=O)CC[C@@]43C)[C@@H]1CC[C@@H]2C(=O)COCCCCCC(=O)N1CCN(C(=O)c2cc(Cc3n[nH]c(=O)c4ccccc34)ccc2F)CC1 [Compound 1386, 4-(3-(4-(6-(2-((8S,9S,10R,13S,14S,17S)-10,13-dimethyl-3-oxo-2,3,6,7,8,9,10,11,12,13,14,15,16,17-tetradecahydro-1H-cyclopenta[a]phenanthren-17-yl)-2-oxoethoxy)hexanoyl)piperazine-1-carbonyl)-4-fluorobenzyl)phthalazin-1(2H)-one] yielded an IC50 of 100 to 1000 nM.
CC(=O)O[C@]1(C(C)=O)CC[C@H]2[C@@H]3CCC4=CC(=O)CCC4=C3[C@@H](c3ccc(N(C)CCCCCC(=O)N4CCN(C(=O)c5cc(Cc6n[nH]c(=O)c7ccccc67)ccc5F)CC4)cc3)C[C@@]21C [Compound 1378, (8S,11R,13S,14S,17R)-17-acetyl-11-(4-((6-(4-(2-fluoro-5-((4-oxo-3,4-dihydrophthalazin-1-yl)methyl)benzoyl)piperazin-1-yl)-6-oxohexyl)(methyl)amino)phenyl)-13-methyl-3-oxo-2,3,6,7,8,11,12,13,14,15,16,17-dodecahydro-1H-cyclopenta[a]phenanthren-17-yl acetate] was tested, and the IC50 was under 10 nM.
CC#C[C@]1(O)CC[C@H]2[C@@H]3CCC4=CC(=O)CCC4=C3[C@@H](c3ccc(N(C)CCCCCC(=O)NCCOCCOCC(=O)N4CCN(C(=O)c5cc(Cc6n[nH]c(=O)c7ccccc67)ccc5F)CC4)cc3)C[C@@]21C [Compound 1429, N-(2-(2-(2-(4-(2-fluoro-5-((4-oxo-3,4-dihydrophthalazin-1-yl)methyl)benzoyl)piperazin-1-yl)-2-oxoethoxy)ethoxy)ethyl)-6-((4-((8S,11R,13S,14S,17S)-17-hydroxy-13-methyl-3-oxo-17-(prop-1-ynyl)-2,3,6,7,8,11,12,13,14,15,16,17-dodecahydro-1H-cyclopenta[a]phenanthren-11-yl)phenyl)(methyl)amino)hexanamide] showed an IC50 of 10 to 100 nM.
